# In the supplement of paper PMC11208160:
# Assay: recombinant barcode read abundance after kanamycin selection (control-corrected) (log10(CPM+1)); higher = more efficient recombination; sequences stand for … in AGTGCAGAGAAAATCGGCCAGTTTTCTCTGCCTGCAGTCCGCATGCCGT…AGATTTATGCAGCGGACTGCCTTTCTCCCAAAGTGATAAACCGGACAGTATCATGGACCGGTTTTCCCGGTAATCCGTATTTGCAAGGTTGGTTTCACT; site = the 11-nt target
# Summary of the method: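 A vector carrying a T7-inducible recombinase and the last 73 bp of the bridge RNA received, by Gibson cloning, oligos encoding a promoter, target, barcode and the first 104 bridge RNA bases under J23119. The pooled constructs entered E. coli together with a donor plasmid by electroporation. Selection used chloramphenicol/ampicillin/kanamycin with 0.1 mM IPTG, with chloramphenicol/ampicillin LB agar as the control, each in two replicates. Recombination efficiency is the averaged, control-corrected counts-per-million of barcodes at recombinant junctions, reported as log10(CPM+1).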
# 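Also: IS621 recombinase and bridge RNA in Escherichia coli cells.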
row,Sequence,recombinant barcode read abundance (log10)
1,GATACAGCTTGGGTTCTAACCTGTTGCCT (site GAAACAGCTAG),0.0665
2,GATACAGCTTGGGTTCTAACCTGTTGCCT (site GACACAGCTAG),0.444
3,GATACAGCTTGGGTTCTAACCTGTTGCCT (site GAGACAGCTAG),0.155
4,GATACAGCTTGGGTTCTAACCTGTTGCCT (site GATACAGCTAG),1.16
5,GATACGACTTGGGTTCTAACCTGTTGCCT (site GATACGACTAG),1.14
6,GATACGACTTGGGTTCTAACCTGTTGCCT (site GATACGCCTAG),0.748
7,GATACGACTTGGGTTCTAACCTGTTGCCT (site GATACGGCTAG),0.0662
8,GATACGACTTGGGTTCTAACCTGTTGCCT (site GATACGTCTAG),0.00976
9,GATACTACTTGGGTTCTAACCTGTTGCAG (site GATACTACTCT),0.17
10,GATACTACTTGGGTTCTAACCTGTTGCAG (site GATGCTACTCT),0.11
11,GATAGACCTTGGGTTCTAACCTGTTGCCT (site CATAGACCTAG),0.126
12,GATAGACCTTGGGTTCTAACCTGTTGCCT (site GATAGACCTAG),1.57
13,GATAGCTCTTGGGTTCTAACCTGTTGCCT (site AATAGCTCTAG),0.332
14,GATAGCTCTTGGGTTCTAACCTGTTGCCT (site CATAGCTCTAG),0.0838
15,GATAGCTCTTGGGTTCTAACCTGTTGCCT (site GATAGCTCTAG),0.998
16,GATAGCTCTTGGGTTCTAACCTGTTGCCT (site TATAGCTCTAG),0.509
17,GATAGGGCTTGGGTTCTAACCTGTTGCCT (site GATAGGGCTAG),1.09
18,GATAGGGCTTGGGTTCTAACCTGTTGCCT (site TTATACACTGA),0.135
19,GATCAGCCTTGGGTTCTAACCTGTTGCCT (site GATCAGCCTAG),0.445
20,GATCAGCCTTGGGTTCTAACCTGTTGCCT (site GATCTGCCTAG),0.063
21,GATCCTACTTGGGTTCTAACCTGTTGCCA (site GATCCTACTTG),0.315
22,GATCCTACTTGGGTTCTAACCTGTTGCCA (site GATGCTACTTG),0.0449

row,Sequence,recombinant barcode read abundance (log10)
1,GATCGAACTTGGGTTCTAACCTGTTGCCT (site AATCGAACTAG),0.15
2,GATCGAACTTGGGTTCTAACCTGTTGCCT (site GATCGAACTAG),0.204
3,GATCGAGCTTGGGTTCTAACCTGTTGCAG (site GATCGAGCTCT),1.42
4,GATCGAGCTTGGGTTCTAACCTGTTGCAG (site TGGACGACTAA),0.178
5,GATCGAGCTTGGGTTCTAACCTGTTGCCT (site GATCGAGCTAG),1.12
6,GATCGAGCTTGGGTTCTAACCTGTTGCCT (site GATCGCGCTAG),0
7,GATCGCGCTTGGGTTCTAACCTGTTGCCT (site GATCGAGCTAG),0.133
8,GATCGCGCTTGGGTTCTAACCTGTTGCCT (site GATCGCGCTAG),0.231
9,GATCTAGCTTGGGTTCTAACCTGTTGCAT (site CATATAGCTAT),0.0793
10,GATCTAGCTTGGGTTCTAACCTGTTGCAT (site GATCTAGCTAT),0.574
11,GATGAGTCTTGGGTTCTAACCTGTTGCTT (site GATGAGTCTAA),1.8
12,GATGAGTCTTGGGTTCTAACCTGTTGCTT (site GATGAGTCTAG),1.34
13,GATGATACTTGGGTTCTAACCTGTTGCGT (site GATGATACTAC),2.51
14,GATGATACTTGGGTTCTAACCTGTTGCGT (site GTTTATACTAC),0.0738
15,GATGCCACTTGGGTTCTAACCTGTTGCCT (site GATCCCACTAG),0.182
16,GATGCCACTTGGGTTCTAACCTGTTGCCT (site GATGCCACTAG),1.53
17,GATGGTACTTGGGTTCTAACCTGTTGCAT (site ACGCACTCTCG),0.0471
18,GATGGTACTTGGGTTCTAACCTGTTGCAT (site GATGGTACTAT),1.46
19,GATGTATCTTGGGTTCTAACCTGTTGCCT (site GAGGTAGCTAG),0.0384
20,GATGTATCTTGGGTTCTAACCTGTTGCCT (site GATGTATCTAG),1.09
21,GATTATTCTTGGGTTCTAACCTGTTGCCT (site GAATATTCTAG),0.0621
22,GATTATTCTTGGGTTCTAACCTGTTGCCT (site GACTATTCTAG),0.0521

row,Sequence,recombinant barcode read abundance (log10)
1,GATTATTCTTGGGTTCTAACCTGTTGCCT (site GAGTATTCTAG),0.138
2,GATTATTCTTGGGTTCTAACCTGTTGCCT (site GATTATTCTAG),0
3,GATTCGACTTGGGTTCTAACCTGTTGCGT (site CTGGACCCTCG),0.0133
4,GATTCGACTTGGGTTCTAACCTGTTGCGT (site GATTCGACTAC),1.02
5,GATTCTCCTTGGGTTCTAACCTGTTGCAT (site GATTCTCCTAA),0.246
6,GATTCTCCTTGGGTTCTAACCTGTTGCAT (site GATTCTCCTAC),0.143
7,GATTCTCCTTGGGTTCTAACCTGTTGCAT (site GATTCTCCTAG),0.0815
8,GATTCTCCTTGGGTTCTAACCTGTTGCAT (site GATTCTCCTAT),0.197
9,GATTCTTCTTGGGTTCTAACCTGTTGCCT (site GATTCTTCTAG),0.1
10,GATTCTTCTTGGGTTCTAACCTGTTGCCT (site GCTTCTTCTAG),0.024
11,GATTCTTCTTGGGTTCTAACCTGTTGCCT (site GGTTCTTCTAG),0.232
12,GATTCTTCTTGGGTTCTAACCTGTTGCCT (site GTTTCTTCTAG),0
13,GATTGGACTTGGGTTCTAACCTGTTGCTT (site AATTGGACTAA),0.38
14,GATTGGACTTGGGTTCTAACCTGTTGCTT (site CATTGGACTAA),0.421
15,GATTGGACTTGGGTTCTAACCTGTTGCTT (site GATTGGACTAA),0.661
16,GATTGGACTTGGGTTCTAACCTGTTGCTT (site TATTGGACTAA),0.128
17,GCAAAGCCTTGGGTTCTAACCTGTTGCCT (site GCAAAGCCTAG),1.18
18,GCAAAGCCTTGGGTTCTAACCTGTTGCCT (site GCACAGACTAG),0.195
19,GCAAGGACTTGGGTTCTAACCTGTTGCAG (site GCAAGGACTCT),2.6
20,GCAAGGACTTGGGTTCTAACCTGTTGCAG (site GCACGGACTCT),0.165
21,GCAAGGACTTGGGTTCTAACCTGTTGCAG (site GCAGGGACTCT),0.76
22,GCAAGGACTTGGGTTCTAACCTGTTGCAG (site GCATGGACTCT),0.587

row,Sequence,recombinant barcode read abundance (log10)
1,GCAAGGCCTTGGGTTCTAACCTGTTGCCT (site ACAAGGCCTAG),0.0435
2,GCAAGGCCTTGGGTTCTAACCTGTTGCCT (site CCAAGGCCTAG),0.721
3,GCAAGGCCTTGGGTTCTAACCTGTTGCCT (site GCAAGGCCTAG),0.418
4,GCAAGGCCTTGGGTTCTAACCTGTTGCCT (site TCAAGGCCTAG),0.0143
5,GCAATTACTTGGGTTCTAACCTGTTGCTT (site GCAATTACTAA),0.0238
6,GCAATTACTTGGGTTCTAACCTGTTGCTT (site TGGGGCCCTCG),0.078
7,GCACCACCTTGGGTTCTAACCTGTTGCCT (site GCACAACCTAG),0.0145
8,GCACCACCTTGGGTTCTAACCTGTTGCCT (site GCACCACCTAG),1.06
9,GCACCACCTTGGGTTCTAACCTGTTGCCT (site GCACGACCTAG),0.178
10,GCACCACCTTGGGTTCTAACCTGTTGCCT (site GCACTACCTAG),0.127
11,GCACCGCCTTGGGTTCTAACCTGTTGCCT (site ACACCGCCTAG),0.667
12,GCACCGCCTTGGGTTCTAACCTGTTGCCT (site CCACCGCCTAG),0.0991
13,GCACCGCCTTGGGTTCTAACCTGTTGCCT (site GCACCGCCTAG),1.09
14,GCACCGCCTTGGGTTCTAACCTGTTGCCT (site TCACCGCCTAG),0.0378
15,GCACGCCCTTGGGTTCTAACCTGTTGCCT (site GCACGCCCTAG),0.711
16,GCACGCCCTTGGGTTCTAACCTGTTGCCT (site TCCCGCCCTAG),0.0743
17,GCACGCCCTTGGGTTCTAACCTGTTGCTT (site GCACGCCCTAA),0.737
18,GCACGCCCTTGGGTTCTAACCTGTTGCTT (site GCGCGGCCTAA),0.181
19,GCACTCCCTTGGGTTCTAACCTGTTGCCT (site GCACTCCCTAG),0.0516
20,GCACTCCCTTGGGTTCTAACCTGTTGCCT (site GCCCTCCCTAG),0.0585
